PubChem BioAssay AID330 (DTP/NCI, 2004)
“And” between values parts separate entries of the source, which are not always exact repeats. Equal values may be shown once. Toxic doses and inconclusive results are not listed.

Tested on: P388 leukemia ip, CD2F1 mice, survival T/C
Experiment: NCI In Vivo Anticancer Drug Screen. Data for tumor model P388 Leukemia (intraperitoneal) in CD2F1 (CDF1) mice
Conditions: endpoint: median survival time, higher = longer survival
Summary of the method: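 Mice carrying the transplanted tumor received test compound or vehicle. Survival was recorded in each group, and the value is the treated-group measurement divided by that of the vehicle-treated control group.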

[1] = dose: 100.0 mg/kg/injection, schedule: Q01DX001 (ip), vehicle: saline with Tween-80
[2] = dose: 200.0 mg/kg/injection, schedule: Q01DX001 (ip), vehicle: saline with Tween-80
[3] = dose: 400.0 mg/kg/injection, schedule: Q01DX001 (ip), vehicle: saline with Tween-80
[4] = dose: 50.0 mg/kg/injection, schedule: Q01DX009 (ip), vehicle: saline with Tween-80
[5] = dose: 100.0 mg/kg/injection, schedule: Q01DX009 (ip), vehicle: saline with Tween-80
[6] = dose: 200.0 mg/kg/injection, schedule: Q01DX009 (ip), vehicle: saline with Tween-80
[7] = dose: 50.0 mg/kg/injection, schedule: Q01DX009 (ip), vehicle: saline
[8] = dose: 100.0 mg/kg/injection, schedule: Q01DX009 (ip), vehicle: saline

**Q.** For CNC(=O)Oc1cccc2c1C(=O)OC2=O, which T/C [1] is on record?
**A.** 100 % of control

**Q.** And the T/C [2]?
**A.** 92 % of control

**Q.** What about the T/C [3] of the same compound?
**A.** 102 % of control

**Q.** Which T/C (dose: 9.0 mg/kg/injection, schedule: Q01DX009 (ip), vehicle: saline with Tween-80) does the source give for CCOC(=O)c1sc(N)nc1C here?
**A.** 111 % of control

**Q.** And the T/C (dose: 18.0 mg/kg/injection, schedule: Q01DX009 (ip), vehicle: saline with Tween-80)?
**A.** 90 % of control

**Q.** And the T/C (dose: 25.0 mg/kg/injection, schedule: Q01DX009 (ip), vehicle: saline with Tween-80)?
**A.** 105 % of control

**Q.** And the T/C (dose: 36.0 mg/kg/injection, schedule: Q01DX009 (ip), vehicle: saline with Tween-80)?
**A.** 99 % of control

**Q.** And the T/C [4]?
**A.** 106 % of control and 112 % of control and 113 % of control

**Q.** What about the T/C [5] of the same compound?
**A.** 108 % of control and 115 % of control and 97 % of control

**Q.** What about the T/C [6] of the same compound?
**A.** 102 % of control and 112 % of control

**Q.** How did the T/C [7] turn out when COC(=O)CCCOCCCC(=O)OC was run?
**A.** 95 % of control

**Q.** What about the T/C [8] of the same compound?
**A.** 99 % of control

**Q.** Which results are given for C=C1C=C(C)C(=O)O1?
**A.** T/C [1]: 99 % of control; T/C [2]: 103 % of control; T/C [3]: 105 % of control

**Q.** What does the source list for CCCc1c(C)nc2scc(-c3ccccc3)n2c1=O?
**A.** T/C [4]: 105 % of control; T/C [5]: 99 % of control; T/C [6]: 99 % of control

**Q.** How did the T/C (dose: 12.5 mg/kg/injection, schedule: Q04DX003 (ip), vehicle: saline with Tween-80) turn out when O=C1NCNC(=O)N1 was run?
**A.** 100 % of control

**Q.** What about the T/C (dose: 25.0 mg/kg/injection, schedule: Q04DX003 (ip), vehicle: saline with Tween-80) of the same compound?
**A.** 98 % of control

**Q.** What about the T/C (dose: 50.0 mg/kg/injection, schedule: Q04DX003 (ip), vehicle: saline with Tween-80) of the same compound?
**A.** 101 % of control

**Q.** What about the T/C (dose: 100.0 mg/kg/injection, schedule: Q04DX003 (ip), vehicle: saline with Tween-80) of the same compound?
**A.** 98 % of control

**Q.** Which T/C (dose: 25.0 mg/kg/injection, schedule: Q01DX001 (ip), vehicle: distilled water + Tween-80) does the source give for O=NN(C(=O)NC1CCCC1)C1CCCC1 here?
**A.** 106 % of control

**Q.** And the T/C (dose: 50.0 mg/kg/injection, schedule: Q01DX001 (ip), vehicle: distilled water + Tween-80)?
**A.** 105 % of control

**Q.** And the T/C (dose: 100.0 mg/kg/injection, schedule: Q01DX001 (ip), vehicle: distilled water + Tween-80)?
**A.** 108 % of control

**Q.** And the T/C (dose: 200.0 mg/kg/injection, schedule: Q01DX001 (ip), vehicle: distilled water + Tween-80)?
**A.** 110 % of control

**Q.** What about the T/C (dose: 400.0 mg/kg/injection, schedule: Q01DX001 (ip), vehicle: distilled water + Tween-80) of the same compound?
**A.** 110 % of control

**Q.** O=C(C[n+]1cc2ccccc2cc1/C=N/O)c1ccccc1 was tested. Which T/C (dose: 50.0 mg/kg/injection, schedule: Q01DX009 (ip), vehicle: saline sonified) did it give?
**A.** 100 % of control

**Q.** And the T/C (dose: 100.0 mg/kg/injection, schedule: Q01DX009 (ip), vehicle: saline sonified)?
**A.** 100 % of control

**Q.** What about the T/C (dose: 200.0 mg/kg/injection, schedule: Q01DX009 (ip), vehicle: saline sonified) of the same compound?
**A.** 86 % of control

**Q.** Cc1ccc(OC(=O)c2ccc3ccccc3n2)cc1 was tested. Which T/C (dose: 100.0 mg/kg/injection, schedule: Q04DX002 (ip), vehicle: saline with Tween-80) did it give?
**A.** 101 % of control

**Q.** What about the T/C (dose: 200.0 mg/kg/injection, schedule: Q04DX002 (ip), vehicle: saline with Tween-80) of the same compound?
**A.** 94 % of control

**Q.** And the T/C (dose: 400.0 mg/kg/injection, schedule: Q04DX002 (ip), vehicle: saline with Tween-80)?
**A.** 94 % of control

**Q.** ClCCN(CCCl)c1ccc(N=Cc2ccccc2)cc1 was tested. Which T/C (dose: 1.56 mg/kg/injection, schedule: Q01DX009 (ip), vehicle: saline with Tween-80) did it give?
**A.** 159 % of control and 167 % of control

**Q.** And the T/C (dose: 3.12 mg/kg/injection, schedule: Q01DX009 (ip), vehicle: saline with Tween-80)?
**A.** 179 % of control and 205 % of control

**Q.** And the T/C (dose: 6.25 mg/kg/injection, schedule: Q01DX009 (ip), vehicle: saline with Tween-80)?
**A.** 230 % of control

**Q.** How did the T/C (dose: 25.0 mg/kg/injection, schedule: Q01DX009 (ip), vehicle: saline) turn out when O=C(O)C(CCc1ccccc1)NCc1ccccc1 (stereo unspecified) was run?
**A.** 102 % of control

**Q.** And the T/C [7]?
**A.** 88 % of control

**Q.** What about the T/C [8] of the same compound?
**A.** 88 % of control and 94 % of control

**Q.** And the T/C (dose: 200.0 mg/kg/injection, schedule: Q01DX009 (ip), vehicle: saline)?
**A.** 95 % of control

**Q.** And the T/C (dose: 400.0 mg/kg/injection, schedule: Q01DX009 (ip), vehicle: saline)?
**A.** 89 % of control
